From patent publication US12624050B2, “Three fused ring derivative-containing salt or crystal form and pharmaceutical composition thereof” (Shanghai Hansoh Biomedical Co., Ltd., priority 2019, dated 2026)

Key:
PI3Kγ = biological target: T1, PI3Kγ (Homo sapiens, UniProt P48736); assay: ADP-Glo Lipid Kinase Assay, PI3Kγ kinase activity; format: biochemical; details: ratio of IC50 values
T1 construct: purchased Thermofisher #PV4786
Experimental: (§1) In this experiment, ADP-Glo Lipid Kinase Assay (Promega #V9102) from Promega was used. The lipid kinases PI3Kα/β/γ/δ catalyzed the ATP-to-ADP reaction in the presence of the substrate PIP2:3PS and ATP. The lipid kinase activity was characterized by measuring the ADP content in the reaction, and the half inhibition concentrations IC50 of the compounds on PI3Kα/β/γ/δ kinase activity were obtained.
(§2) Kinase reactions were carried out in white 384-well plates (Perkin Elmer #6007299). 2 μL of the compound of various concentrations diluted with ddH2O containing 1% DMSO was added to each well, and 2 μL of ddH2O containing 1% DMSO was added to positive control wells. Then 2 μL of 0.1 to 2 nM PI3K kinase solution diluted with 5× kinase buffer (HEPES 250 mM, MgCl2 15 mM, NaCl 250 mM, BSA 0.05%) was added to each well, and 2 μL of 5× kinase buffer was added to the negative control wells. 4 μL of 50 μM substrate PIP2:3PS (Promega #V1701) prepared with 10× Dilution buffer and ddH2O was added to all wells. Finally, 2 μL of 50 to 100 μM ATP solution diluted with water was added to start the reaction. After the reaction was carried out at room temperature for 90 to 120 minutes, 10 µL of ADP-Glo Reagent (containing 10 mM MgCl2) was added to each well, and the reaction was carried out at room temperature for 60 minutes to eliminate excess adenosine triphosphate (ATP) in the reaction. Then 20 μL of Kinase Detection Reagent was added to each well. After the reaction was carried out for 20 minutes at room temperature in the dark, the chemiluminescence was measured by BioTek Synergy H1 microplate reader.
(§3) The percentage inhibition data of the compound-treated well was calculated from positive control wells (DMSO control wells) and negative control wells (no kinase added) on the plate {% inhibition=100−[(test compound value−negative control value)]/(positive control value-negative control value)×100}. IC50 values were calculated using GraphPad prism and using a four-parameter nonlinear logistic formula to fit the data of different concentrations and corresponding percent inhibition.

HGC-27 (E542K) = assay: Proliferation inhibition of PI3Kα mutant cancer cells, Cell Titer-Glo, HGC-27; format: cell-based; details: Homo sapiens
Experimental: (§4) The proliferation inhibitory effect of the compounds of the examples on the PI3Kα mutant cancer cell lines (HCC1954, HGC-27 and MKN1) was detected by Cell Titer-Glo method. Cell lines were cultured in RPMI 1640 medium (Gibco #22400089) containing 10% FBS (Gibco #10091148) and 1% P/S (Hyclone #SV30010) under the condition of 37° C. and 5% CO2. The cells were collected before the experiment, and the cell density was adjusted after cell counting. The cells were seeded in a white 96-well plate (Corning #3610) at a density of 1000 to 10000 cells/well, and incubated in an incubator at 37° C. and 5% CO2 overnight. The prepared compound solutions of different concentrations and the corresponding solvent controls were added to the plate. The plate was again incubated in an incubator at 37° C. and 5% CO2 for 48 to 96 hours. Then the cell plate and its contents were equilibrated to room temperature. 20 to 100 μL of Cell Titer-Glo solution (Promega #G7573) was added to each well, and the plate was shaken and mixed well, then incubated at room temperature for 5 to 30 minutes in the dark. The chemiluminescence was measured by a SynergyH1 microplate reader from BioTek.
(§5) The percentage inhibition data of the compound-treated well was calculated from solvent control wells on the plate {% inhibition=100−([…])×100}. IC50 values were calculated using GraphPad prism and using a four-parameter nonlinear logistic formula to fit the data of different concentrations and corresponding percent inhibition.

PI3Kβ = biological target: T2, PI3Kβ (Homo sapiens, UniProt P42338); assay: ADP-Glo Lipid Kinase Assay, PI3Kβ kinase activity; format: biochemical; details: ratio of IC50 values
T2 construct: purchased Carna #11-102
Experimental: as §1, §2, §3

PI3Kδ = biological target: T3, PI3Kδ (Homo sapiens, UniProt O00329); assay: ADP-Glo Lipid Kinase Assay, PI3Kδ kinase activity; format: biochemical; details: ratio of IC50 values
T3 construct: purchased Carna #11-103
Experimental: as §1, §2, §3

MKN1 (E545K) = assay: Proliferation inhibition of PI3Kα mutant cancer cells, Cell Titer-Glo, MKN1; format: cell-based; details: Homo sapiens, MKN-1
Experimental: as §4, §5

HCC1954 (H1047R) = assay: Proliferation inhibition of PI3Kα mutant cancer cells, Cell Titer-Glo, HCC1954; format: cell-based; details: Homo sapiens
Experimental: as §4, §5

T2 sequence (P42338 whole entry): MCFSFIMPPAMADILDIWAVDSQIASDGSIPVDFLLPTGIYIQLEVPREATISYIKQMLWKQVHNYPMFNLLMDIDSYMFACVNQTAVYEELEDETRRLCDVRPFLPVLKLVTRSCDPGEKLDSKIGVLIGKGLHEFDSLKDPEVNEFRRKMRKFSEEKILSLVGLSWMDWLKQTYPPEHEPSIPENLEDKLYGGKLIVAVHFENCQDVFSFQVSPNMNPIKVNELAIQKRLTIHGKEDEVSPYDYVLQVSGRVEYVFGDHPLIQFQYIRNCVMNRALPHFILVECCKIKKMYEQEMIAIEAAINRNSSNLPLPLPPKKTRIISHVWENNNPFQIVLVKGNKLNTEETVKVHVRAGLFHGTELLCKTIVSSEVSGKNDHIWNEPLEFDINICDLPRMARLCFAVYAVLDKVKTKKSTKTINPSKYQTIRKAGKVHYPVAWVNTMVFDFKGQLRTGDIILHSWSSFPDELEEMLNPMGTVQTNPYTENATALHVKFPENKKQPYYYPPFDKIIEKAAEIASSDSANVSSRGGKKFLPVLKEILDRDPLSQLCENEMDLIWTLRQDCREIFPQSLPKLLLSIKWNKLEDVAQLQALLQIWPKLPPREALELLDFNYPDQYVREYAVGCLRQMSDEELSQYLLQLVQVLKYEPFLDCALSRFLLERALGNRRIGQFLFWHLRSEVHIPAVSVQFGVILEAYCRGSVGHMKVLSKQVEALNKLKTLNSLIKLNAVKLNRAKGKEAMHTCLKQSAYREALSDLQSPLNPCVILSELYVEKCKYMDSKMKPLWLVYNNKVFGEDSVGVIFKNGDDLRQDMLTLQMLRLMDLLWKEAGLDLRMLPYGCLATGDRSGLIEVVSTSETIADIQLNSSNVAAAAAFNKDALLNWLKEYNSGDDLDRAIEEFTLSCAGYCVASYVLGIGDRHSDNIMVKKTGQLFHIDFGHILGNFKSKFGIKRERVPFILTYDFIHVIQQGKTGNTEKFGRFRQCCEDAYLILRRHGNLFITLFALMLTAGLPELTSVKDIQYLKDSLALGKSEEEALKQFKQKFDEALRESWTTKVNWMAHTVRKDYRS
T2 sequence (P27986 whole entry partner): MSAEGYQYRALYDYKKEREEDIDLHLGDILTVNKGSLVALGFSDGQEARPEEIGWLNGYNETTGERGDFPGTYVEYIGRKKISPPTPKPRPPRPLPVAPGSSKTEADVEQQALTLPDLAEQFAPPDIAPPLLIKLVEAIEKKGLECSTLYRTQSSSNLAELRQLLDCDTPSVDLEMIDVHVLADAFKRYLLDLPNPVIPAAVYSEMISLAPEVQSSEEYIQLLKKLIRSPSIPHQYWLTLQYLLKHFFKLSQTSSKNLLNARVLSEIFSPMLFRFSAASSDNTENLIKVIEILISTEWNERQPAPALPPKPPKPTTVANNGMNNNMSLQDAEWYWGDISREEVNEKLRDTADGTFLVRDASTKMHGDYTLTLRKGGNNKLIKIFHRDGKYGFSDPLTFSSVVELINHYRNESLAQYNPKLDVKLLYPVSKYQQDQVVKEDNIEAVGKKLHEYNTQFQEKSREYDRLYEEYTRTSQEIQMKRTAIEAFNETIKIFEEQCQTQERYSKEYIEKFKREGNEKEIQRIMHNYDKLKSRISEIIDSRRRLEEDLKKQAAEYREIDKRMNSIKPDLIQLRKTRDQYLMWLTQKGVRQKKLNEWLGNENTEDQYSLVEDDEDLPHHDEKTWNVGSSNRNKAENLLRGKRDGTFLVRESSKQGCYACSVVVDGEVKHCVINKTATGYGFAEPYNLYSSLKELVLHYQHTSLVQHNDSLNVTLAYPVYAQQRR
T1 sequence (P48736 whole entry): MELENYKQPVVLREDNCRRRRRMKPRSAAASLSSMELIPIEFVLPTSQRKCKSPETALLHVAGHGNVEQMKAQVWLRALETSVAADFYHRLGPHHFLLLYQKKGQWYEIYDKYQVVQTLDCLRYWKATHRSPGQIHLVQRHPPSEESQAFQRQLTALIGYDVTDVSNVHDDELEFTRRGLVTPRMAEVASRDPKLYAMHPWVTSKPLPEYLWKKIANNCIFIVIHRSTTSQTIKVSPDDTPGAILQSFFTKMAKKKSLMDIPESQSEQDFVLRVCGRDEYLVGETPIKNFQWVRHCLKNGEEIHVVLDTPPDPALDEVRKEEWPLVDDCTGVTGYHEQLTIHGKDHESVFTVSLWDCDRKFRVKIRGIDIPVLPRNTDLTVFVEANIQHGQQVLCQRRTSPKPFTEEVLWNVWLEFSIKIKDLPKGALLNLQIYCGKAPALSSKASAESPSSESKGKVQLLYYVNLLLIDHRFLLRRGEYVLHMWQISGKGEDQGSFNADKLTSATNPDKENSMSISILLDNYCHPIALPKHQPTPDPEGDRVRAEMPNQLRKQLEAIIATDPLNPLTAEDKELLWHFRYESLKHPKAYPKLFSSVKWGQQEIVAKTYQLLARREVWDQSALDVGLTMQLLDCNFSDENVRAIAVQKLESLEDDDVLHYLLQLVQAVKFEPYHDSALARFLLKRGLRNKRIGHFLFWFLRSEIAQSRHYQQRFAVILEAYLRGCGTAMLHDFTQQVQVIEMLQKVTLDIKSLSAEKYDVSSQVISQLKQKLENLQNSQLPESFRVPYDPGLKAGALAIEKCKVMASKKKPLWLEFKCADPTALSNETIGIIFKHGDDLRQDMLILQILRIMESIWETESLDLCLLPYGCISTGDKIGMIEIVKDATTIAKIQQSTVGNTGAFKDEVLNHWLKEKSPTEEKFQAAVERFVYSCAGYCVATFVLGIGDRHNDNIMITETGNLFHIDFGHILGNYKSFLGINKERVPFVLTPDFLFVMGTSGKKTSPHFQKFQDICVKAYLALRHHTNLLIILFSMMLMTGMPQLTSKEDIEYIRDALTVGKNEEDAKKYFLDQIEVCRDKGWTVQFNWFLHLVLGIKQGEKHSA
T3 sequence (O00329 whole entry): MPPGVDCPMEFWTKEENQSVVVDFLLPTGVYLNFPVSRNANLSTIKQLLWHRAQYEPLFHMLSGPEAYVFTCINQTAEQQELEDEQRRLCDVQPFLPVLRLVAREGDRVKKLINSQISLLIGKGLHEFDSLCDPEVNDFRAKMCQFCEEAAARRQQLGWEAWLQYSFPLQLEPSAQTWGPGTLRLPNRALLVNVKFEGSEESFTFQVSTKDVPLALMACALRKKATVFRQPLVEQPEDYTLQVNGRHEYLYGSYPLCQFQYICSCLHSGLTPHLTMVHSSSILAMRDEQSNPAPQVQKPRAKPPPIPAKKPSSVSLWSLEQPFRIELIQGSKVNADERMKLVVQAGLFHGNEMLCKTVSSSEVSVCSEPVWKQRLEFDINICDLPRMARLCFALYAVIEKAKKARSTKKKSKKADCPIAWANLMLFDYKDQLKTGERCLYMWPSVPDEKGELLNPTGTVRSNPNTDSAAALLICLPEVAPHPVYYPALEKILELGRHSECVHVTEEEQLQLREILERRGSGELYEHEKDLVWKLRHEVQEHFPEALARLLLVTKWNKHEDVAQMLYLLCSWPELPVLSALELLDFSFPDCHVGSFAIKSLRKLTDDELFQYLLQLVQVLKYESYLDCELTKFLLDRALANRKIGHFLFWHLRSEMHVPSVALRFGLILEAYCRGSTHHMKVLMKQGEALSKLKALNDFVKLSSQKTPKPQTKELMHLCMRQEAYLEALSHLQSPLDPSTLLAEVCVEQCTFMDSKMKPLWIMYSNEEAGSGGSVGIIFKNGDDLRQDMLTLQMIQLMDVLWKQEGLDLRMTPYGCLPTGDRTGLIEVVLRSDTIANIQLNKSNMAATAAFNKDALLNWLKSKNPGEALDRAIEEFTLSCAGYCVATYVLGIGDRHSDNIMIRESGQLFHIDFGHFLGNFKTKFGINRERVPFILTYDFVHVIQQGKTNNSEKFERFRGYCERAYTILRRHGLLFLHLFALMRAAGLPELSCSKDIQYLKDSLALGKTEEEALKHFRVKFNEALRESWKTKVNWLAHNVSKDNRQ
T3 sequence (P27986 whole entry partner): as the sequence (P27986 whole entry partner) above

| Selectivity of PI3Kα vs PI3Kγ (PI3Kγ) | IC50 (HGC-27 (E542K)) [nM] | Selectivity of PI3Kα vs PI3Kβ (PI3Kβ) | Selectivity of PI3Kα vs PI3Kδ (PI3Kδ) | IC50 (MKN1 (E545K)) [nM] | IC50 (HCC1954 (H1047R)) [nM] | SMILES |
| --- | --- | --- | --- | --- | --- | --- |
| 214 | 325 | 1101 | 125 | 508 | 160 | CC(Nc1ccc2c(c1)OCCn1cc(N3C(=O)OC(C)[C@H]3C(F)F)nc1-2)C(N)=O (stereo in doubt) [Example 26, (R)-2-((2-((4S,5R)-4-(difluoromethyl)-5-methyl-2-oxooxazolidin-3-yl)-5,6-dihydrobenzo[f]imidazo[1,2-d][1,4]oxazepin-9-yl)amino)propionamide] |
| 226 | – | >1266 | 177 | – | – | C[C@H](Nc1ccc2c(c1)OCCn1c-2nc(N2C(=O)OC[C@H]2C(F)F)c1F)C(N)=O [Example 1, (S)-2-((2-((S)-4-(difluoromethyl)-2-oxooxazolidin-3-yl)-3-fluoro-5,6-dihydrobenzo[f]imidazo[1,2-d][1,4]oxazepin-9-yl)amino)propionamide] |
| 112 | 417 | 358 | 103 | 615 | 204 | CC(C)[C@H](Nc1ccc2c(c1)OCCn1cc(N3C(=O)OC[C@H]3C(F)F)nc1-2)C(N)=O [Example 14, (S)-2-((2-((S)-4-(difluoromethyl)-2-oxooxazolidin-3-yl)-5,6-dihydrobenzo[f]imidazo[1,2-d][1,4]oxazepin-9-yl)amino)-3-methylbutanamide] |
| 648 | 169 | 329 | 29 | 214 | 112 | C[C@@H](C(N)=O)N(C)c1ccc2c(c1)OCCn1cc(N3C(=O)OC[C@H]3C(F)F)nc1-2 [Example 19, (S)-2-((2-((S)-4-(difluoromethyl)-2-oxooxazolidin-3-yl)-5,6-dihydrobenzo[f]imidazo[1,2-d][1,4]oxazepin-9-yl)(methyl)amino)propionamide] |
| – | 396 | – | – | 399 | 205 | NC(=O)[C@@H]1CCN1c1ccc2c(c1)OCCn1cc(N3C(=O)OC[C@H]3C(F)F)nc1-2 [Example 21, (S)-1-(2-((S)-4-(difluoromethyl)-2-oxooxazolidin-3-yl)-5,6-dihydrobenzo[f]imidazo[1,2-d][1,4]oxazepin-9-yl)azetidine-2-carboxamide] |
| 80 | – | 1238 | 75 | – | – | C[C@H](Nc1ccc2c(c1)OCCn1cc(N3C(=O)N(C)C[C@H]3C(F)F)nc1-2)C(N)=O [Example 24, (S)-2-((2-((S)-5-(difluoromethyl)-3-methyl-2-oxoimidazolidin-1-yl)-5,6-dihydrobenzo[f]imidazo[1,2-d][1,4]oxazepin-9-yl)amino)propionamide] |
| 87 | 499 | 178 | 59 | 653 | 226 | C[C@H](Nc1ccc2c(c1F)OCCn1cc(N3C(=O)OC[C@H]3C(F)F)nc1-2)C(N)=O [Example 31, (S)-2-((2-((S)-4-(difluoromethyl)-2-oxooxazolidin-3-yl)-8-fluoro-5,6-dihydrobenzo[f]imidazo[1,2-d][1,4]oxazepin-9-yl)amino)propionamide] |
| 98 | – | 536 | 88 | – | – | C[C@H](Nc1cc(F)c2c(c1)OCCn1cc(N3C(=O)OC[C@H]3C(F)F)nc1-2)C(N)=O [Example 32, (S)-2-((2-((S)-4-(difluoromethyl)-2-oxooxazolidin-3-yl)-11-fluoro-5,6-dihydrobenzo[f]imidazo[1,2-d][1,4]oxazepin-9-yl)amino)propionamide] |
| – | 531 | – | – | 368 | 222 | COC[C@H](Nc1ccc2c(c1)OCCn1cc(N3C(=O)OC[C@H]3C(F)F)nc1-2)C(N)=O [Example 43, (S)-2-((2-((S)-4-(difluoromethyl)-2-oxooxazolidin-3-yl)-5,6-dihydrobenzo[f]imidazo[1,2-d][1,4]oxazepin-9-yl)amino)-3-methoxypropionamide] |
| 243 | 186 | 785 | 90 | 268 | 184 | C[C@H](Nc1ccc2c(c1)OCCn1cc(N3C(=O)CC[C@H]3C(F)F)nc1-2)C(N)=O [Example 46, (S)-2-((2-((S)-2-(difluoromethyl)-5-oxopyrrolidin-1-yl)-5,6-dihydrobenzo[f]imidazo[1,2-d][1,4]oxazepin-9-yl)amino)propionamide] |
| 170 | 455 | 157 | 51 | 426 | 243 | COC[C@H](Nc1ccc2c(c1F)OCCn1cc(N3C(=O)SC[C@H]3C(F)F)nc1-2)C(N)=O [Example 51, (S)-2-((2-((R)-4(difluoromethyl)-2-oxothiazolidin-3-yl)-8-fluoro-5,6-dihydrobenzo[f]imidazo[1,2-d][1,4]oxazepin-9-yl)amino)-3-methoxypropionamide] |
| 254 | 77 | 423 | 43 | 66 | 40 | NC(=O)[C@@H]1CCCN1c1ccc2c(c1)OCCn1cc(N3C(=O)SC[C@H]3C(F)F)nc1-2 [Example 53, (S)-1-(2-((R)-4-(difluoromethyl)-2-oxothiazolidin-3-yl)-5,6-dihydrobenzo[f]imidazo[1,2-d][1,4]oxazepin-9-yl)pyrrolidine-2-carboxamide] |
| 217 | 32 | 238 | 31 | 42 | 29 | C[C@@H](C(N)=O)N(C)c1ccc2c(c1)OCCn1cc(N3C(=O)SC[C@H]3C(F)F)nc1-2 [Example 54, (S)-2-((2-((R)-4-(difluoromethyl)-2-oxothiazolidin-3-yl)-5,6-dihydrobenzo[f]imidazo[1,2-d][1,4]oxazepin-9-yl)(methyl)amino)propionamide] |
